Consider 5 molecules from patent publication US20250281397A1, “FORMULATIONS OF A PLASMA KALLIKREIN INHIBITOR” (KALVISTA PHARMACEUTICALS LIMITED, priority 2022, published 2025).

For data set [1] the following is noted: literature / authorised label; cited from earlier work.
The conditions of data set [2]: reported by Chilcote and Sinha, ARVO 2012; cited from earlier work.
A short description of data set [3]: Phase 1 trial: single-dose 3-way crossover pharmacokinetic study, ODT vs film-coated tablets. It is filed as in vivo, human. The note with it: single doses of 500 mg or 600 mg in ODT or FCT, healthy adult participants. Here is the method:
This study was an open label, randomized, single-dose, 3-way crossover pharmacokinetic study.
Thirty-six (36) healthy, adult, male and female subjects were enrolled.
The film coated tablets were those used in the phase 2 study described herein (NCT04208412).
There was a washout period of at least 4 days between the dose in Period 1 and Period 2 and the dose in Period 2 and Period 3.
An analysis of variance (ANOVA) was performed on the natural log (ln) transformed AUC0-t, AUC0-inf, AUC% extrap and Cmax, using the appropriate statistical procedure.

Data set [4] is described as follows: BCS classification (ICH M9). The note with it: ICH guideline M9. It is filed as physicochemical. From the text: BCS class IV drugs are considered to be poorly soluble and poorly permeable meaning that they are likely to have poor oral bioavailability and/or the oral absorption may be so low that they cannot be given by the oral route. Due to their numerous unfavourable characteristics, BCS class IV drugs are particularly challenging to formulate as oral dosage forms and in particular as ODTs. Indeed, ODTs of BCS class IV drugs are not generally known in the art.

Data set [5] in a line: Plasma concentration after oral administration. It is filed as in vivo. The note with it: following administration of a dosage amount of at least about 60 mg.
The conditions of data set [6]: swallowable tablet, NCT04208412; cited from earlier work.

On to Ecallantide, for which the reported adverse reactions result in data set [1] is listed as “risks of anaphylactic reactions”. Regarding `N=C(N)c1ccc(CNC(=O)c2cnn(Cc3ccccc3)c2)cc1` [ASP-440], the oral availability result in data set [2] is listed as “poor oral availability”.

Turning to `N#Cc1cccc([C@@H](NCC2CC2)c2ccc(F)c(NC(=O)c3cc(C(F)(F)F)nn3-c3cccc(CN)c3)c2)c1` [Berotralstat, reference compound], the reported adverse reactions entry in data set [1] is on record as “higher doses were associated with more gastrointestinal adverse effects”. `COCc1nn(Cc2ccc(Cn3ccccc3=O)cc2)cc1C(=O)NCc1nccc(OC)c1F` [KVD900, N-[(3-fluoro-4-methoxypyridin-2-yl)methyl]-3-(methoxymethyl)-1-({4-[(2-oxopyridin-1-yl)methyl]phenyl}methyl) pyrazole-4-carboxamide]: in data set [3], the safety and tolerability result is given as “well tolerated”. Moreover, the BCS classification result in data set [4] was “BCS class IV”. Besides, in data set [5], the “concentration of KVD900 in plasma” value is “at least 500 ng/ml”. The “phase 2 efficacy and safety endpoints” value in data set [6] was “met all of its phase 2 efficacy and safety endpoints”.

B1: lanadelumab: recombinant fully human IgG1 kappa light chain monoclonal antibody, plasma kallikrein inhibitor (antibody, chains of the INN, looked up, V domains shown)
VH: EVQLLESGGGLVQPGGSLRLSCAASGFTFSHYIMMWVRQAPGKGLEWVSGIYSSGGITVYADSVKGRFTISRDNSKNTLYLQMNSLRAEDTAVYYCAYRRIGVPRRDEFDIWGQGTMVTVSS
VL: DIQMTQSPSTLSASVGDRVTITCRASQSISSWLAWYQQKPGKAPKLLIYKASTLESGVPSRFSGSGSGTEFTLTISSLQPDDFATYYCQQYNTYWTFGQGTKVEIK
With B1, the reported adverse reactions entry in data set [1] was “hypersensitivity, injection site pain, injection site erythema, and injection site bruising”.
